Values after ≈ are worked out from the molar mass of the structure shown. Like-named read-outs stand apart in the source and are kept apart here.
Key:
[1] = system: Trichophyton interdigitale CCM 8377 (ATCC 9533); test: Antifungal microdilution broth (EUCAST); format: cell-based; conditions: Trichophyton interdigitale, read-out: MIC Trichophyton interdigitale
[2] = system: Klebsiella pneumoniae CCM 4415 (ATCC 10031); test: Antibacterial microdilution broth (EUCAST); format: cell-based; conditions: Klebsiella pneumoniae, read-out: MIC Klebsiella pneumoniae
[3] = system: Mycobacterium tuberculosis H37Rv CNCTC My 331/88 (ATCC 27294); test: Microplate Alamar Blue assay vs Mtb H37Rv; format: cell-based; conditions: Mycobacterium tuberculosis
[4] = system: Candida krusei CCM 8271 (ATCC 6258); test: Antifungal microdilution broth (EUCAST); format: cell-based; conditions: Pichia kudriavzevii, read-out: MIC Candida krusei
[5] = system: Escherichia coli CCM 3954 (ATCC 25922); test: Antibacterial microdilution broth (EUCAST); format: cell-based; conditions: Escherichia coli, read-out: MIC Escherichia coli
[6] = system: Mycobacterium tuberculosis H37Ra ITM-M006710 (ATCC 9431); test: Antimycobacterial microdilution (resazurin) vs Mtb H37Ra; format: cell-based
[7] = system: Staphylococcus epidermidis CCM 4418 (ATCC 12228); test: Antibacterial microdilution broth (EUCAST); format: cell-based; conditions: read-out: MIC Staphylococcus epidermidis
[8] = system: Candida tropicalis CCM 8264 (ATCC 750); test: Antifungal microdilution broth (EUCAST); format: cell-based; conditions: read-out: MIC Candida tropicalis
[9] = system: Lichtheimia corymbifera CCM 8077; test: Antifungal microdilution broth (EUCAST); format: cell-based; conditions: Lichtheimia corymbifera, read-out: MIC Lichtheimia corymbifera
[10] = system: Candida parapsilosis CCM 8260 (ATCC 22019); test: Antifungal microdilution broth (EUCAST); format: cell-based; conditions: Lodderomyces parapsilosis, read-out: MIC Candida parapsilosis
[11] = system: Aspergillus flavus CCM 8363; test: Antifungal microdilution broth (EUCAST); format: cell-based; conditions: Aspergillus flavus, read-out: MIC Aspergillus flavus
[12] = system: methicillin-resistant Staphylococcus aureus subsp. aureus (MRSA) CCM 4750 (ATCC 43300); test: microbe, parasite or virus in culture; format: cell-based; conditions: read-out: MIC Methicillin-resistant Staphylococcus aureus subsp. aureus
[13] = system: Enterococcus faecalis CCM 4224 (ATCC 29212); test: Antibacterial microdilution broth (EUCAST); format: cell-based; conditions: read-out: MIC Enterococcus faecalis
[14] = system: Staphylococcus aureus subsp. aureus CCM 4223 (ATCC 29213); test: Antibacterial microdilution broth (EUCAST); format: cell-based; conditions: read-out: MIC Staphylococcus aureus subsp. aureus
[15] = system: Mycobacterium avium DSM 44,156 (ATCC 25291); test: Antimycobacterial microdilution (resazurin) vs M. avium; format: cell-based; conditions: Mycobacterium avium, Middlebrook 7H9, resazurin; read-out: MIC M. avium
HepG2 cell line = test: Cytotoxicity screening, CellTiter 96 assay; conditions: for IC50: Homo sapiens, HepG2, 24 h, read-out: IC50 HepG2; for toxicity to HepG2 up to highest tested concentration: tested up to 500 µM (2, 3), 250 µM (12, 17), 100 µM (6, 7, 11) because of solubility
[16] = system: Candida albicans CCM 8320 (ATCC 24433); test: Antifungal microdilution broth (EUCAST); format: cell-based; conditions: Candida albicans, read-out: MIC Candida albicans
[17] = system: Aspergillus fumigatus ATCC 204305; test: Antifungal microdilution broth (EUCAST); format: cell-based; conditions: Aspergillus fumigatus, read-out: MIC Aspergillus fumigatus
[18] = system: Pseudomonas aeruginosa CCM 3955 (ATCC 27853); test: Antibacterial microdilution broth (EUCAST); format: cell-based; conditions: read-out: MIC Pseudomonas aeruginosa
[19] = system: Acinetobacter baumannii DSM 30007 (ATCC 19606); test: Antibacterial microdilution broth (EUCAST); format: cell-based; conditions: read-out: MIC Acinetobacter baumannii
[20] = system: Mycolicibacterium smegmatis DSM 43,465 (ATCC 607); test: Antimycobacterial microdilution (resazurin) vs M. smegmatis; format: cell-based; conditions: Middlebrook 7H9, resazurin, read-out: MIC M. smeg.
[21] = system: Mycobacterium kansasii DSM 44,162 (ATCC 12478); test: Antimycobacterial microdilution (resazurin) vs M. kansasii; format: cell-based; conditions: read-out: MIC M. kansasii
[22] = system: Mycolicibacterium aurum DSM 43,999 (ATCC 23366); test: Antimycobacterial microdilution (resazurin) vs M. aurum; format: cell-based; conditions: read-out: MIC M. aurum

Nc1nccnc1C(=O)Nc1ccc2c(c1)B(O)OC2 [Compound 6, 3-amino-N-(1-hydroxy-1,3-dihydrobenzo[c][1,2]oxaborol-6-yl)pyrazine-2-carboxamide]
melting point: 246.6 to 249.4 °C
MIC ([1]; 72h incubation): > 500 µM
MIC ([1]; 120h incubation): > 500 µM
MIC ([2]; 24h incubation): > 500 µM
MIC ([2]; 48h incubation): > 500 µM
MIC ([3]; pH 6.6, MABA, Middlebrook 7H9 pH 6.6, recalculated from µg/mL, read-out: MIC Mtb H37Rv): > 370 µM
MIC ([4]; 24h incubation): > 500 µM
MIC ([4]; 48h incubation): > 500 µM
MIC ([5]; 24h incubation): > 500 µM
MIC ([5]; 48h incubation): > 500 µM
MIC ([6]; Middlebrook 7H9, resazurin, recalculated from µg/mL, read-out: MIC Mtb H37Ra): > 1850 µM
MIC ([7]; 24h incubation): > 500 µM
MIC ([7]; 48h incubation): > 500 µM
MIC ([8]; 24h incubation): > 500 µM
MIC ([8]; 48h incubation): > 500 µM
MIC ([9]; CCM8077, 24h incubation): > 500 µM
MIC ([9]; CCM8077, 48h incubation): > 500 µM
MIC ([10]; 24h incubation): > 500 µM
MIC ([10]; 48h incubation): > 500 µM
MIC ([11]; CCM8363, 24h incubation): > 500 µM
MIC ([11]; CCM8363, 48h incubation): > 500 µM
MIC ([12]; 24 h): > 500 µM
MIC ([12]; 48 h): > 500 µM
MIC ([13]; 24h incubation): > 500 µM
MIC ([13]; 48h incubation): > 500 µM
MIC ([14]; 24h incubation): > 500 µM
MIC ([14]; 48h incubation): > 500 µM
MIC [15]: > 1850 µM
IC50 (HepG2 cell line): > 100 µM
toxicity to HepG2 up to highest tested concentration (HepG2 cell line): non-toxic
MIC ([16]; 24h incubation): > 500 µM
MIC ([16]; 48h incubation): > 500 µM
MIC ([17]; ATCC204305, 24h incubation): > 500 µM
MIC ([17]; ATCC204305, 48h incubation): > 500 µM
MIC ([18]; 24h incubation): > 500 µM
MIC ([18]; 48h incubation): > 500 µM
MIC ([19]; 24h incubation): > 500 µM
MIC ([19]; 48h incubation): > 500 µM
MIC [20]: 463 µM (≈ 125 µg/mL)
MIC [21]: > 1850 µM
MIC ([22]; Middlebrook 7H9, resazurin): 14.5 µM (≈ 3.91 µg/mL)

Nc1ncc(Cl)nc1C(=O)Nc1ccc2c(c1)B(O)OC2 [Compound 7, 3-amino-6-chloro-N-(1-hydroxy-1,3-dihydrobenzo[c][1,2]oxaborol-6-yl)pyrazine-2-carboxamide]
melting point: 242.9 to 244.4 °C
MIC ([1]; 72 h): > 125 µM
MIC ([1]; 120 h): > 125 µM
MIC ([2]; 24 h): > 125 µM
MIC ([2]; 48 h): > 125 µM
MIC ([3]; pH 6.6, read-out: MIC Mtb H37Rv, MABA, Middlebrook 7H9 pH 6.6, recalculated from µg/mL): > 328 µM
MIC ([4]; 24 h): > 125 µM
MIC ([4]; 48 h): > 125 µM
MIC ([5]; 24 h): > 125 µM
MIC ([5]; 48 h): > 125 µM
MIC ([6]; read-out: MIC Mtb H37Ra, Middlebrook 7H9, resazurin, recalculated from µg/mL): > 1850 µM
MIC ([7]; 24 h): > 125 µM
MIC ([7]; 48 h): > 125 µM
MIC ([8]; 24 h): > 125 µM
MIC ([8]; 48 h): > 125 µM
MIC ([9]; CCM8077, 24 h): > 125 µM
MIC ([9]; CCM8077, 48 h): > 125 µM
MIC ([10]; 24 h): > 125 µM
MIC ([10]; 48 h): > 125 µM
MIC ([11]; CCM8363, 24 h): > 125 µM
MIC ([11]; CCM8363, 48 h): > 125 µM
MIC ([12]; 24 h): > 125 µM
MIC ([12]; 48 h): > 125 µM
MIC ([13]; 24 h): > 125 µM
MIC ([13]; 48 h): > 125 µM
MIC ([14]; 24 h): > 125 µM
MIC ([14]; 48 h): > 125 µM
MIC [15]: 411 µM (≈ 125 µg/mL)
IC50 (HepG2 cell line): > 100 µM
toxicity to HepG2 up to highest tested concentration (HepG2 cell line): non-toxic
MIC ([16]; 24 h): > 125 µM
MIC ([16]; 48 h): > 125 µM
MIC ([17]; ATCC204305, 24 h): > 125 µM
MIC ([17]; ATCC204305, 48 h): > 125 µM
MIC ([18]; 24 h): > 125 µM
MIC ([18]; 48 h): > 125 µM
MIC ([19]; 24 h): > 125 µM
MIC ([19]; 48 h): > 125 µM
MIC [20]: 411 µM (≈ 125 µg/mL)
MIC [21]: > 1850 µM
MIC [22]: > 1850 µM

Source: PMC9917560, “Design, Synthesis and Antimicrobial Evaluation of New N-(1-Hydroxy-1,3-dihydrobenzo[c][1,2]oxaborol-6-yl)(hetero)aryl-2-carboxamides as Potential Inhibitors of Mycobacterial Leucyl-tRNA Synthetase” (International Journal of Molecular Sciences, 2023)
